We go through 9 compounds from patent US12110279B2, “Triazolones, tetrazolones, and imidazolones, or their salts, and pharmaceutical compositions comprising the same” (Yuhan Corporation, priority 2021, dated 2024).

Assay type in all cases: biochemical
The target in assay [1] is T1, recombinant human VAP-1 (Homo sapiens, UniProt Q16853).
T1 construct: purchased R&D systems
T1 sequence (Q16853 1-763): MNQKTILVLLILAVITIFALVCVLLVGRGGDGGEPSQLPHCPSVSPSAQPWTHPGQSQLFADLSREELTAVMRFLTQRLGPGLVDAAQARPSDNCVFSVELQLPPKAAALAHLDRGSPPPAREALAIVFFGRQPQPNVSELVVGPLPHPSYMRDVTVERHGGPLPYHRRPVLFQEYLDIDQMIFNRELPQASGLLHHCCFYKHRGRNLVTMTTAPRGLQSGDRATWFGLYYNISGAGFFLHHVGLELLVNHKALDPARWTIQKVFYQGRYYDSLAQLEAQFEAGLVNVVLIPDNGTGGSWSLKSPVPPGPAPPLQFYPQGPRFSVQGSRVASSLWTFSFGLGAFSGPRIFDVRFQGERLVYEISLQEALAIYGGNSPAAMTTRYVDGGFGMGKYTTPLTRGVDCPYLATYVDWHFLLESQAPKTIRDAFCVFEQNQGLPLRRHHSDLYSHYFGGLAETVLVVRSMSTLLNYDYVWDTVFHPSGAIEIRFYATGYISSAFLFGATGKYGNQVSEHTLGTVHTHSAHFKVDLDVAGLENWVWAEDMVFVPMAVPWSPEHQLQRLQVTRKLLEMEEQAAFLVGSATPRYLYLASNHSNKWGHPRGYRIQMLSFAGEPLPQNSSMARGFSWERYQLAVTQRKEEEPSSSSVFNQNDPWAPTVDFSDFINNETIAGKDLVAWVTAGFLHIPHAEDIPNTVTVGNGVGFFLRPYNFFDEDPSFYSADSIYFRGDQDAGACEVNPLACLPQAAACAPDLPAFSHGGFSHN
Description: Amplex Red HRP-coupled amine oxidase activity evaluation, recombinant human VAP-1. As to conditions: substrate 1 mM benzylamine; 30 min preincubation at 37° C.; read-out: Inhibitory Activity (IC50, nM) human VAP-1. The method, then:
(§1) The compounds according to the present technology were evaluated in terms of activity on recombinant human VAP-1 (R&D systems) by measuring the level of hydrogen peroxide in horseradish peroxidase (HRP)-coupled reaction using Amplex Red Hydrogen Peroxide Assay Kit (Molecular Probes, Invitrogen, USA). The experiment was carried out at room temperature using benzylamine as a substrate. In the HRP-coupled reaction, hydrogen peroxide oxidation of 10-acetyl-3,7-dihydroxyphenoxazine (Amplex Red reagent) produces resorufin, which is a highly fluorescent compound. Briefly, the test compound was dissolved in dimethyl sulfoxide (DMSO) at a concentration of 20 mM. The dose-response assessment was made by 1:3 serial dilution in DMSO, thereby creating an 8-point curve. The concentration of the upper part was controlled according to the efficacy of the compounds, followed by dilution with a reaction buffer solution to obtain a final DMSO concentration of less than 1%. To each well of a 96 black well plate, human VAP-1 purified in 50 mM sodium phosphate buffer solution (pH7.4) was added. The test compounds dissolved in DMSO were incubated with the human VAP-1 enzymes at 37° C. for 30 minutes. After 30-minute incubation, each well was added with a reaction mixture containing 200 uM Amplex Red reagent prepared from 50 mM sodium phosphate buffer solution (pH 7.4), 1 mM benzylamine, and 1 U/mL HRP. Fluorescence intensity was measured at several time points during 1-2 hours using a microplate reader (Flexstation3, Molecular Devices) under the wavelength condition exciting at 544 nm and reading the emission at 590 nm. The inhibitory effect of the compounds was measured as a decrease (%) in the signal rate as compared to the control group without any inhibitor (only diluted DMSO). Data was fixed to a logistic model with four variables and IC50 value was calculated using GraphPad Prism program.

Assay [2] has as its target T2, recombinant human MAO-B (monoamine oxidase-B) (Homo sapiens, UniProt P27338).
T2 construct: purchased Sigma-Aldrich
T2 sequence (P27338 1-520): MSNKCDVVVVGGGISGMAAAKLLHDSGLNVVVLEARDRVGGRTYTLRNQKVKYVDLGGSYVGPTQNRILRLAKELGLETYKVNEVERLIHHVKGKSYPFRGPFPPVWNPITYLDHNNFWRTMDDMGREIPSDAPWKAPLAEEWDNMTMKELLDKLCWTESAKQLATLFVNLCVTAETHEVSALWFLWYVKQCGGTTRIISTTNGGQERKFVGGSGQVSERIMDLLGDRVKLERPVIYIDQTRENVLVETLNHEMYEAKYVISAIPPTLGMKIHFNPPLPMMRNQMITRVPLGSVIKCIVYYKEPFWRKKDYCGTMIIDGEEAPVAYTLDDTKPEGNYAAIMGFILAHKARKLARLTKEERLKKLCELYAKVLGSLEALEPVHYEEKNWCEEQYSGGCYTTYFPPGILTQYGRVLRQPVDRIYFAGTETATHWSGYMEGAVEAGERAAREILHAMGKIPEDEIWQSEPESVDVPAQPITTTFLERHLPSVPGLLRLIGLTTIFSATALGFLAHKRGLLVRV
Nature of the assay: Amplex Red HRP-coupled amine oxidase activity evaluation, recombinant human MAO-B. To be noted: substrate 1 mM benzylamine; read-out: Inhibitory Activity (IC50, nM) MAO-B. The method, then:
[The source words this procedure for another target and says it was used here with some conditions changed.] as §1

Assay [3] has as its target T3, recombinant human DAO (diamine oxidase) (Homo sapiens, UniProt P19801).
T3 construct: purchased R&D systems
T3 sequence (P19801 20-751): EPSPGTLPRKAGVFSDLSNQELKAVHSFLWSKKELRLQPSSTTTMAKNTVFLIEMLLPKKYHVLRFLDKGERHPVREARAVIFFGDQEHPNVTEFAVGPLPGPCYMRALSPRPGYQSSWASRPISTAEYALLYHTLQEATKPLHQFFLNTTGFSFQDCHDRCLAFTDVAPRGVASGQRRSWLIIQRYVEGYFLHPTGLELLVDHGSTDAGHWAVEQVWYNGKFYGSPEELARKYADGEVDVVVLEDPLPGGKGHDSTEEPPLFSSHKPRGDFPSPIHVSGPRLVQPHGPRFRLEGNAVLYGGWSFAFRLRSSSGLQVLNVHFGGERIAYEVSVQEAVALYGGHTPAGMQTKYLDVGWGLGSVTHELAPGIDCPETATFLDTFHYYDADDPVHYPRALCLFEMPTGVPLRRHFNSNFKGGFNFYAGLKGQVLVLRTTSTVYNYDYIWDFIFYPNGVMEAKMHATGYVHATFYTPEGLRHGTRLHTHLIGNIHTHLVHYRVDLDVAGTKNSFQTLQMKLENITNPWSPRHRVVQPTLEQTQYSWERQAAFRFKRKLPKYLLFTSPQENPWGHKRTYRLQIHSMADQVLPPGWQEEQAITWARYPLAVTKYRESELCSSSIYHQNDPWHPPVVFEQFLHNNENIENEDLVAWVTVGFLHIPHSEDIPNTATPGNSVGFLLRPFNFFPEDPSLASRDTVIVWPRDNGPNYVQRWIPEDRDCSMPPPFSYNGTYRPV
Nature of the assay: Amplex Red HRP-coupled amine oxidase activity evaluation, recombinant human DAO. To be noted: substrate 1 mM putrescine; read-out: Inhibitory Activity (IC50, nM) DAO. Here is the method: [The source words this procedure for another target and says it was used here with some conditions changed.] as §1

The target of assay [4] is T4, recombinant human MAO-A (monoamine oxidase-A) (Homo sapiens, UniProt P21397).
T4 construct: purchased Sigma-Aldrich
T4 sequence (P21397 1-527): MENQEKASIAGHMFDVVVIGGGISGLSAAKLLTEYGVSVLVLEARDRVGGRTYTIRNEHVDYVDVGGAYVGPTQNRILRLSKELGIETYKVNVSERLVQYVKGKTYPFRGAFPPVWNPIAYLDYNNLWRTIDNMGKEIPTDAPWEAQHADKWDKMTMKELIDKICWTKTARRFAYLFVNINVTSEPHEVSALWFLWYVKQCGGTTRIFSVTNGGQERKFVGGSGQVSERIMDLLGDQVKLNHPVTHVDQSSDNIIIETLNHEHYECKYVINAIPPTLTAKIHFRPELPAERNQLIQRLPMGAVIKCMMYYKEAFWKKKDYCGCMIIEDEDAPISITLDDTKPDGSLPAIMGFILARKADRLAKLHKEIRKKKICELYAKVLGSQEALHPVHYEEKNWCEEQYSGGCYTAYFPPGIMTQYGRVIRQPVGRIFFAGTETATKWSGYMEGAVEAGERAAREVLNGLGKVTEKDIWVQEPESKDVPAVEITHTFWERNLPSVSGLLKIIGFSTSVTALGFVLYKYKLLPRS
Nature of the assay: Amplex Red HRP-coupled amine oxidase activity evaluation, recombinant human MAO-A. To be noted: substrate 0.5 mM tyramine; read-out: Inhibitory Activity (IC50, nM) MAO-A. The method, then:
[The source words this procedure for another target and says it was used here with some conditions changed.] as §1

Where a name gives a salt, the structure may show the parent alone. Where only a bound is given, the exact number is not on record here.

Usually IC50 stands for the concentration that gives 50% inhibition. As for `CCn1cc(-c2ccc(Cn3c(C)nn(CC(CN)=C(F)F)c3=O)s2)cn1` [Example 1, 2-[2-(aminomethyl)-3,3-difluoro-allyl]-4-[[5-(1-ethylpyrazol-4-yl)-2-thienyl]methyl]-5-methyl-1,2,4-triazol-3-one trifluoroacetate], the half-maximal inhibitory concentration (IC50) was 1.7 nM in assay [1], over 100000 nM in assay [2], over 100000 nM in assay [3] and over 100000 nM in assay [4].
Turning to `Cc1nn(CC(CN)=C(F)F)c(=O)n1Cc1ccc(-c2ccc(S(C)(=O)=O)cc2)s1` [Example 2, 2-[2-(aminomethyl)-3,3-difluoro-allyl]-5-methyl-4-[[5-(4-methylsulfonylphenyl)-2-thienyl]methyl]-1,2,4-triazol-3-one trifluoroacetate], the IC50 in assay [1] was 1.8 nM; in assay [2] it was over 100000 nM; in assay [3], over 100000 nM; in assay [4], over 100000 nM.
Turning to `Cc1nn(CC(CN)=C(F)F)c(=O)n1Cc1ccc(-c2ccc(N3CCNCC3)cc2)s1` [Example 3, 2-[2-(aminomethyl)-3,3-difluoro-allyl]-5-methyl-4-[[5-(4-piperazin-1-ylphenyl)-2-thienyl]methyl]-1,2,4-triazol-3-one di-trifluoroacetate], the IC50 in assay [1] is 18 nM; in assay [2], over 100000 nM; in assay [3], over 100000 nM; in assay [4] it was over 100000 nM.
With `CCn1cc(-c2ccc(Cn3c(C)nn(CC(CN)=C(F)F)c3=O)s2)ccc1=O` [Example 4, 5-[5-[[1-[2-(aminomethyl)-3,3-difluoro-allyl]-3-methyl-5-oxo-1,2,4-triazol-4-yl]methyl]-2-thienyl]-1-ethyl-pyridin-2-one trifluoroacetate], the IC50 in assay [1] was 1.5 nM; in assay [2], over 100000 nM; in assay [3], over 100000 nM; in assay [4], over 100000 nM.
`Cc1nn(CC(CN)=C(F)F)c(=O)n1Cc1ccc(-c2ccc(N(C)C)nc2)s1` [Example 5, 2-[2-(aminomethyl)-3,3-difluoro-allyl]-4-[[5-[6-(dimethylamino)-3-pyridyl]-2-thienyl]methyl]-5-methyl-1,2,4-triazol-3-one trifluoroacetate]: the IC50 in assay [1] was 2 nM; in assay [2] it was over 100000 nM; in assay [3], over 100000 nM; in assay [4], over 100000 nM.
Regarding `Cc1nn(CC(CN)=C(F)F)c(=O)n1Cc1ccc(-c2ccc3c(c2)OCO3)s1` [Example 6, 2-[2-(aminomethyl)-3,3-difluoro-allyl]-4-[[5-(1,3-benzodioxol-5-yl)-2-thienyl]methyl]-5-methyl-1,2,4-triazol-3-one trifluoroacetate], the 50% inhibitory concentration (IC50) is 2.5 nM in assay [1], over 100000 nM in assay [2], over 100000 nM in assay [3] and over 100000 nM in assay [4].
On to `Cc1cc(-c2ccc(Cn3c(C)nn(CC(CN)=C(F)F)c3=O)s2)cc2c1NC(=O)CC2` [Example 7, 6-[5-[[1-[2-(aminomethyl)-3,3-difluoro-allyl]-3-methyl-5-oxo-1,2,4-triazol-4-yl]methyl]-2-thienyl]-8-methyl-3,4-dihydro-1H-quinolin-2-one trifluoroacetate], for which the concentration for half-maximal inhibition (IC50) was 1 nM in assay [1], over 100000 nM in assay [2], over 100000 nM in assay [3] and over 100000 nM in assay [4].
For `Cc1nn(CC(CN)=C(F)F)c(=O)n1Cc1ccc(-c2ccc3c(c2)CCC(=O)N3C)s1` [Example 8, 6-[5-[[1-[2-(aminomethyl)-3,3-difluoro-allyl]-3-methyl-5-oxo-1,2,4-triazol-4-yl]methyl]-2-thienyl]-1-methyl-3,4-dihydroquinolin-2-one trifluoroacetate], the half-inhibitory concentration (IC50) in assay [1] was 1 nM; in assay [2], over 100000 nM; in assay [3], over 100000 nM; in assay [4], over 100000 nM.
As to `CCn1cc(-c2ccc(-n3nnn(CC(CN)=C(F)F)c3=O)s2)ccc1=O` [Example 9, 5-[5-[4-[2-(aminomethyl)-3,3-difluoro-allyl]-5-oxo-tetrazol-1-yl]-2-thienyl]-1-ethyl-pyridin-2-one trifluoroacetate], the IC50 in assay [1] was 0.4 nM; in assay [2] it was 203 nM; in assay [3] it was 3.1 nM; in assay [4], over 100000 nM.
